Reference: US20110262561A1, “Protoilludance Norsesquiterpenoid Esters and Uses Thereof” (NATIONAL RESEARCH INSTITUTE OF CHINESE MEDICINE, priority 2010, published 2011)
Where two headings read alike, the source gives them in different places.

What was measured:
[1] = tested on: endothelial cells (human endothelial-like cells, Eahy926); experiment: MTT cell viability of endothelial cells (ECs); assay type: cell-based
Protocol: (§1) The endothelial cells (human endothelial-like cells, Eahy926) and 4 cancer cell lines (MCF-7, H460, HT-29, and CEM) were derived from the American Type Culture Collection (ATCC) and were maintained in DMEM or RPMI medium (Life Technologies) supplemented with 2 mM L-glutamine and 10% heat-inactivated fetal bovine serum (FBS) (Life Technologies) under standard culture conditions. The cell viability and cell number were determined by the Trypan Blue dye-exclusion method.
(§2) Anti-angiogenic effects of CH-205 compounds were estimated by their inhibition on the growth of endothelial cells. The toxicity of CH-205 compounds to endothelial cells was estimated using MTT (3-(4,5-dimethy;thiazol-2-yl)-2,5-diphenyltetrazolium bromide, a tetrazole) assay. MTT assay is a standard colorimetric assay (an assay which measures changes in color) for measuring the activity of enzymes that reduce yellow MTT to formazan, giving a purple color. It is also used to determine cytotoxity of potential medicinal agents and other toxic materials, since those agents would result in cell toxicity and therefore metabolic dysfunction and therefore decreased performance in the assay. The cytotoxity concentrations of the CH-205 compounds measured in MTT test are all over 20 μM (Table 2), however, their effects on angiogenesis inhibition are in nM range, indicating the safety of these compounds (Table 3).

[2] = MTT cell viability of endothelial cells (ECs); assay type: cell-based, human; details: human, column head prints none, read-out: Cell viability IC50 (cytotoxicity concentration on ECs)
Protocol: as §1, §2

[3] = tested on: MCF-7; experiment: Alamar blue cytotoxicity assay on MCF-7 cancer cells; assay type: cell-based; details: for IC50: Homo sapiens, MCF7, alamar blue, 48 hours treatment
Protocol: as §1
(§3) The alamar blue (AB) assay (dye purchased from Biosource International, Nivelles, Belgium) was used to estimate cell viability in accordance with procedures previously described by Fatokun et al (Bone (2006) 39, 542-551). Briefly, cells were treated with various concentration of each of the test compounds (e.g., compounds of example 1.1) at 37° C. for 48 hours, and the medium in each well was then aspirated at the end of the treatment, 100 μL of fresh medium containing 10% v/v AB was then added to the control and the treated wells, respectively. Plates were then incubated at 37° C. for 6 hour prior to measuring the absorbance at 570 nm and at 600 nm wavelengths using a spectrophotometric plate reader (DYNEX Technologies, USA). Experimental data were normalized to control values. CH-205-A, K, L, O, and -P were effective on MCF-7 cells; CH-205-A, H, K, L, O, and -P were effective on H460 cells; CH-205-A and -P were effective on HT-29 cells and CH-205-A, H, N, and -O were effective on CEM cells.

[4] = tested on: HT-29; experiment: Alamar blue cytotoxicity assay on HT-29 cancer cells; assay type: cell-based; details: for IC50: Homo sapiens, HT-29, alamar blue, 48 hours treatment
Protocol: as §1, §3

[5] = tested on: CEM; experiment: Alamar blue cytotoxicity assay on CEM cancer cells; assay type: cell-based; details: for IC50: Homo sapiens, CCRF-CEM, alamar blue, 48 hours treatment
Protocol: as §1, §3

[6] = tested on: endothelial cells (ECs); experiment: In vitro antiangiogenesis on ECs (inhibition of endothelial cell growth); assay type: cell-based; details: Homo sapiens, read-out: In vitro antiangiogenesis IC50
Protocol: as §1, §2

[7] = tested on: H460; experiment: Alamar blue cytotoxicity assay on H460 cancer cells; assay type: cell-based, human; details: for IC50: Homo sapiens, NCI-H460, alamar blue, 48 hours treatment
Protocol: as §1, §3

[8] = tested on: H460 human lung cancer tumor xenograft; details: for effect on body weight: mouse, in vivo
Protocol: The established, transplantable, 5×10^6/200 μL H460 tumor cells were prepared in RPMI medium. The 200 μL of cell suspension was injected subcutaneously into right flank area of each mouse. The mice were randomized into vehicle control and drug treatment groups of four-six animals each when xenografts were palpable with a tumor size of 40 mm^3. Adminitration of the lead compounds or vehicle began on day 15 when the median tumor size was ranged from 75 to 80 mm^3. Tumor-bearing animals were randomized (five per group) prior to treatment. The candidate test drugs were intraperitoneal (IP) administered into with optimal dosage once every other day (48 hr apart) for 7 or 10 times. […] Solvent vehicle and cisplatin (5 mg/kg) were used to administrate, respectively, as io negative and positive controls. Two days after last administration of tested compounds, the animals were sacrificed. The tumor dimensions were measured every other day using a linear caliper and tumor volume is calculated using the equation V (mm^3)=a×b^2/2, where a is the largest diameter and b is the smallest diameter. Body weights are also recorded once weekly. Tumor is growth inhibition ratio (TGI) is calculated using the equation TGI=(1−(the mean treated tumor mass/mean control tumor mass))*100%.

Compound	Cell viability (% of control) 1 μM [1]	Cell viability (% of control) 10 μM [1]	Cell viability (% of control) 50 μM [1]	Cell viability (% of control) 100 μM [1]	Cell viability (% of control) 250 μM [1]	Cell viability (% of control) 500 μM [1]	IC50 ([2]; Eahy926 endothelial-like cells) [µM]	IC50 [3] [µM]	IC50 [4] [µM]	IC50 [5] [µM]	IC50 ([6]; ECs) [µM]	IC50 [7] [µM]	effective on MCF-7 cells [3]	effect on body weight [8]	effective on H460 cells [7]	also measured
Cc1c(Cl)c(O)cc(O)c1C(=O)OCC1=C[C@@H]2CC(C)(C)C[C@@H]2[C@@]2(C)C[C@@H](O)[C@@]12O [CH-205-H, (((2R,2aS,4aS,7aS,7bR)-2,2a,4a,5,6,7,7a,7b-octahydro-2,2a-dihydroxy-6,6,7 b-trimethyl-1H-cyclobuta[e]inden-3-yl)methyl 3-chloro-4,6-dihydroxy-2-methylbenzoate)]	99.7 % of control	128.7 % of control	34.9 % of control	12.7 % of control	8.4 % of control	7.0 % of control	29.3	56.5	7.1	5.4	0.0013	5.5				melting point: 148 to 149 °C
Cc1c(Cl)c(O)cc(O)c1C(=O)O[C@@H]1C[C@]2(C)C3CC(C)(C)CC3C=C(CO)[C@]12O (stereo partly drawn) [CH-205-K, (2R,2aS,7bR)-2,2a,4a,5,6,7,7a,7b-octahydro-2a-hydroxy-3-(hydroxymethyl)-6,6,7b-trimethyl-1H-cyclobuta[e]inden-2-yl 3-chloro-4,6-dihydroxy-2-methylbenzoate]	103.7 % of control	122.7 % of control	6.4 % of control	6.4 % of control	7.0 % of control	8.8 % of control	21.4	4.8	56.7	28.8	0.0032	4.5	effective	no different effect on body weight	effective	tumor volume after sacrifice ([8]; CH-205-K study, 4 mg/kg IP every other day, 7 times, control 1.743±0.129): 1.364±0.14 cm^3; Tumor growth inhibition ratio (TGI) ([8]; CH-205-K study, 4 mg/kg IP, 7 times): 21.74%; tumor volume after sacrifice ([8]; CH-205-K study, 20 mg/kg IP every other day, 7 times, control 1.743±0.129): 1.283±0.077 cm^3; Tumor growth inhibition ratio (TGI) ([8]; CH-205-K study, 20 mg/kg IP, 7 times): 26.38%; tumor volume after sacrifice ([8]; CH-205-K study, 40 mg/kg IP every other day, 7 times, control 1.743±0.129): 1.109±0.119 cm^3; Tumor growth inhibition ratio (TGI) ([8]; CH-205-K study, 40 mg/kg IP, 7 times): 36.38%; tumor volume after sacrifice ([8]; CH-205-K study, 80 mg/kg IP every other day, 7 times, control 1.743±0.129): 0.867±0.086 cm^3; Tumor growth inhibition ratio (TGI) ([8]; CH-205-K study, 80 mg/kg IP, 7 times): 50.29%
COc1cc(O)c(C(=O)O[C@@H]2C[C@]3(C)C4CC(C)(C)CC4C=C(C=O)[C@]23O)c(C)c1Cl (stereo partly drawn) [CH-205-O, (2R,2aS,7bR)-3-formyl-2,2a,4a,5,6,7,7a,7b-octahydro-2a-hydroxy-6,6,7b-trimethyl-1 H-cyclobuta[e]inden-2-yl 3-chloro-6-hydroxy-4-methoxy-2-methylbenzoate]	98.5 % of control	43.6 % of control	7.0 % of control	6.5 % of control	7.1 % of control	7.0 % of control	13.2	1.7	42.1	5.1	0.0021	4.5	effective	no different effect on body weight	effective	effective on CEM cells [5]: effective; tumor volume after sacrifice ([8]; CH-205-O study, 4 mg/kg IP every other day, 10 times, solvent control 3.984±0.484): 1.475±0.155 cm^3; Tumor growth inhibition ratio (TGI) ([8]; CH-205-O study, 4 mg/kg IP, 10 times): 60.87%; tumor volume after sacrifice ([8]; CH-205-O study, 40 mg/kg IP every other day, 10 times, solvent control 3.984±0.484): 1.470±0.177 cm^3; Tumor growth inhibition ratio (TGI) ([8]; CH-205-O study, 40 mg/kg IP, 10 times): 70.7%; tumor volume after sacrifice ([8]; CH-205-O study, 80 mg/kg IP every other day, 10 times, solvent control 3.984±0.484): 1.645±0.206 cm^3; Tumor growth inhibition ratio (TGI) ([8]; CH-205-O study, 80 mg/kg IP, 10 times): 62.9%; tumor regression ([8]; CH-205-O study, 4, 40 and 80 mg/kg each other day, after 10 injections): highly significant tumor regression
COc1cc(O)c(C(=O)O[C@@H]2C[C@]3(C)C4C(C=C(C=O)[C@]23O)CC(C)(C)[C@@H]4O)c(C)c1Cl (stereo partly drawn) [CH-205-P, (2R,2aS,7R,7bR)-3-formyl-2,2a,4a,5,6,7,7a,7b-octahydro-2a,7-dihydroxy-6,6,7b-trimethyl-1H-cyclobuta[e]inden-2-yl 3-chloro-6-hydroxy-4-methoxy-2-methylbenzoate]	105.1 % of control	78.5 % of control	6.8 % of control	9.8 % of control	6.8 % of control	9.6 % of control	20.7	4.4	34.7	44.6	0.0018	5.7	effective		effective	effective on HT-29 cells [4]: effective
Cc1c(Cl)c(O)cc(O)c1C(=O)O[C@@H]1C[C@]2(C)C3[C@@H](O)C(C)(C)C[C@@]3(O)C=C(C=O)[C@]12O (stereo partly drawn) [CH-205-Q, (2R,2aS,4aR,7R,7bR)-3-formyl-2,2a,4a,5,6,7,7a,7b-octahydro-2a,4a,7-trihydroxy-6,6,7b-trimethyl-1H-cyclobuta[e]inden-2-yl 3-chloro-4,6-dihydroxy-2-methyl benzoate]	104.7 % of control	98.9 % of control	105.5 % of control	108.6 % of control	100.2 % of control	74.1 % of control		> 100	> 100	> 100		> 100				IC50 [2]: > 500 µM; IC50 [6]: 0.001 µM
